Measurements: US20250339409A1, “USES OF PAN BET INHIBITORS” (VYNE THERAPEUTICS INC., priority 2021, published 2025)
Converted amounts (≈) assume the structure as drawn. “And” between values parts separate entries of the source, which are not always exact repeats. Identical values can stand only once. Like-named read-outs stand apart in the source and are kept apart here.

What was measured:
[1] = Homogeneity of BETi1 dispersions in NaCMC/saline by light microscopy; type: physicochemical; settings: suspensions in NaCMC solutions
Procedure: BETi1 is dispersed in 0.5% Sodium Carboxymethyl Cellulose (NaCMC) solution in NaCl saline (0.9% NaCl in water) to receive 4 mg/gram dispersion. […] All dispersions are thermally sterilized.
BETi suspensions at 4 mg/g (0.4%), at 0.4 mg/g (0.04%) and at 0.04 mg/g (0.004%) (Table 38) were prepared in NaCMC solutions as set out in Experimental Method N. The homogeneity (including absence of aggregates of solid particles) of the dispersion was analyzed and confirmed by light microscopy as shown in FIG. 14A-C. […] In the sample at 0.04 mg/g mainly larger crystals were observed, since the smaller ones were probably dissolved.

[2] = Solubility of BETi1 in water (HPLC) and in solvents (visual observation); type: physicochemical
Procedure: The resulting sample, still containing solid BETi1, was filtered and analyzed by HPLC for assay of BETi1 in solution. Solubility of BETi in water was determined to be about 0.005 mg/gram or 0.5 mg/100 mL water (1 ml=1 g) using HPLC (Table 41A).
To characterize the solubility of BETi in other solvents, about 5 mg of BETi1 was weighed into a 2 ml glass vial. 20 μL aliquots of each of the solvent listed in Table 41B was added to dissolve the drug substance at 25° C. Vortex and sonication were applied to assist dissolution. Approximate solubility was determined by visual observation and reported in […]

[3] = test system: bleomycin induced pulmonary fibrosis; assay: Bleomycin induced pulmonary fibrosis in mice, nebulized treatment: body weight, weight of whole lung, survival; type: in vivo; settings: for Predicted (LS) mean diff., % Change Body Weight, Group 2 Bleo/Veh vs. BETi1 group: Baseline, Two Way ANOVA
Procedure: Bleomycin, a […], which acts inter alia by induction of DNA strand breaks.
The Bleomycin induced pulmonary fibrosis in a murine model is used to assess anti-fibrotic and/or anti-inflammatory properties of BETi1 formulations at three concentrations. Fifty C57BL/6 male mice aged 6 to 7 weeks and weighing between 25-30 grams are randomized into five treatment groups (10 mice each): (a) bleomycin induced mice treated with BETi1 at three concentrations (0.06 mg/mL, 0.6 mg/mL and 3 mg/mL); (b) bleomycin induced mice treated with vehicle (control for active) and (c) uninduced mice treated with vehicle (sham) (control for disease).
To generate the morphological and functional aspects of PF, 50 uL bleomycin sulfate in saline per mouse is intranasally dosed on Day 0 (other than for group 1 sham receiving saline). The bleomycin IU conversion to enzyme units (U) is approximately 2 U/mg. For delivery of 4 U/kg in 50 μL, a solution of 2 U/ml (for 25 g mouse) is prepared in 0.9% NaCl.
5 ml of BETi1 solutions at 3 doses, or vehicle and bleomycin concomitantly are delivered once daily for 21 days with a nebulizer based aerosol delivery system (eFlow® rapid Nebuliser System) by inhalation for a period which allows the solutions to be nebulized and up to 2 hours per day. A sham group receives vehicle only. Body weights are recorded on days 1, 7, 14, and 21. Mortality and clinical observations are recorded daily.
On day 21, mice are euthanized by cervical dislocation and the whole lung is dissected and weighed. The chest is wet with alcohol and large scissors are used to open the ribcage. The lungs are removed with fine scissors and forceps, rinsed with PBS and patted dry on gauze.
Investigation of the anti-fibrotic properties of BETi1 composition against TGF-β mediated fibrosis was undertaken in a bleomycin induced murine model mimicking IPF in accordance with the protocol set out in Experimental Method R.

[4] = Group 3 Bleo/BETi1 0.06 mg/mL, group mean
[5] = Group 3 Bleo/BETi1 0.06 mg/mL, individual animals

SMILES: Cn1cc(-c2cccc(O)c2Oc2ccccc2)c2cc[nH]c2c1=O [BETi1]
- aggregates of API particles in dispersions [1]: no visible aggregates of API particles
- solubility ([2]; isopropanol): slightly soluble
- solubility ([2]; organic solvent or mixture, thermodynamic from solid, 1,4-Dioxane, 25° C., visual observation, read-out: Approximate solubility): 104 mg/mL (≈ 313 mM)
- solubility ([2]; organic solvent or mixture, thermodynamic from solid, Acetone, 25° C., visual observation, read-out: Approximate solubility): 15 mg/mL (≈ 45.1 mM)
- solubility ([2]; organic solvent or mixture, thermodynamic from solid, Acetonitrile, 25° C., visual observation, read-out: Approximate solubility): < 5 mg/mL
- solubility ([2]; organic solvent or mixture, thermodynamic from solid, Anisole, 25° C., visual observation, read-out: Approximate solubility): < 5 mg/mL
- solubility ([2]; organic solvent or mixture, thermodynamic from solid, Dichloromethane, 25° C., visual observation, read-out: Approximate solubility): < 5 mg/mL
- solubility ([2]; organic solvent or mixture, thermodynamic from solid, Ethanol, 25° C., visual observation, read-out: Approximate solubility): 12 mg/mL (≈ 36.1 mM)
- solubility ([2]; organic solvent or mixture, thermodynamic from solid, Ethyl acetate, 25° C., visual observation, read-out: Approximate solubility): < 5 mg/mL
- solubility ([2]; organic solvent or mixture, thermodynamic from solid, Heptane, 25° C., visual observation, read-out: Approximate solubility): < 5 mg/mL
- solubility ([2]; organic solvent or mixture, thermodynamic from solid, IPAc, 25° C., visual observation, read-out: Approximate solubility): < 5 mg/mL
- solubility ([2]; organic solvent or mixture, thermodynamic from solid, Isopropanol, 25° C., visual observation, read-out: Approximate solubility): 6 mg/mL (≈ 18.1 mM)
- solubility ([2]; organic solvent or mixture, thermodynamic from solid, Methanol, 25° C., visual observation, read-out: Approximate solubility): 21 mg/mL (≈ 63.2 mM)
- solubility ([2]; organic solvent or mixture, thermodynamic from solid, Methyl ethyl ketone, 25° C., visual observation, read-out: Approximate solubility): 12 mg/mL (≈ 36.1 mM)
- solubility ([2]; organic solvent or mixture, thermodynamic from solid, Tetrahydrofuran, 25° C., visual observation, read-out: Approximate solubility): 104 mg/mL (≈ 313 mM)
- solubility ([2]; organic solvent or mixture, thermodynamic from solid, t-Butyl methyl ether, 25° C., visual observation, read-out: Approximate solubility): < 5 mg/mL
- solubility ([2]; polyethylene glycol 400, methanol, ethanol, acetone and methyl ethyl ketone): sparingly soluble
- solubility ([2]; polyethylene glycol 400, organic solvent or mixture, read-out: solubility in polyethylene glycol 400): ~20 mg/mL (≈ 60.2 mM)
- solubility ([2]; tetrahydrofurane and 1,4-dioxane): freely soluble
- solubility at 5 h ([2]; thermodynamic from solid, Water, 25° C., HPLC, read-out: Approximate solubility): 0.005 mg/mL (≈ 0.015 mM)
- solubility ([2]; water, ethyl acetate, acetonitrile, IPAc, t-Butyl methyl ether, heptane, dichloromethane or anisole): insoluble
- solubility at 5 h ([2]; water, as stated in the dog study, read-out: water solubility limit): 0.05 mg/mL (≈ 0.15 mM)
- whole lung weight ([3]; 0.06 mg/mL and 0.6 mg/mL, vs bleomycin and vehicle): slight decrease in lung weight
- Probability of Survival ([3]; 0.06 mg/mL inhaled, until day 20): 50%
- Probability of Survival ([3]; 0.6 mg/mL inhaled, until day 20): 81.3%
- Probability of Survival ([3]; 3 mg/mL inhaled, until day 20): 76.5%
- Predicted (LS) mean diff., % Change Body Weight, Group 2 Bleo/Veh vs. BETi1 group ([3]; Group 3 Bleo/BETi1 0.06 mg/mL, Dunnett's): 0.0875%
- Predicted (LS) mean diff., % Change Body Weight, Group 2 Bleo/Veh vs. BETi1 group ([3]; Group 4 Bleo/BETi1 0.6 mg/mL, Dunnett's): 0.1750%
- Predicted (LS) mean diff., % Change Body Weight, Group 2 Bleo/Veh vs. BETi1 group ([3]; Group 5 Bleo/BETi1 3 mg/mL, Dunnett's): 0.1629%
- Mean 2 (group mean), Weight of Whole lung ([3]; Group 3 Bleo/BETi1 0.06 mg/mL): 0.2695
- Weight of Whole lung, Mean ([3]; Group 3 Bleo/BETi1 0.06 mg/mL): 0.27 grams
- Weight of Whole lung, individual animals ([3]; Group 3 Bleo/BETi1 0.06 mg/mL): 0.32 grams and 0.28 grams and 0.25 grams and 0.27 grams (3×) and 0.30 grams and 0.19 grams
- Probability of Survival ([3]; Group 3 Bleo/BETi1 0.06 mg/mL, Day Elapsed 0): 100%
- Probability of Survival ([3]; Group 3 Bleo/BETi1 0.06 mg/mL, Day Elapsed 8): 93.75%
- Probability of Survival ([3]; Group 3 Bleo/BETi1 0.06 mg/mL, Day Elapsed 9): 81.25%
- Probability of Survival ([3]; Group 3 Bleo/BETi1 0.06 mg/mL, Day Elapsed 10): 75%
- Probability of Survival ([3]; Group 3 Bleo/BETi1 0.06 mg/mL, Day Elapsed 12): 68.75%
- Probability of Survival ([3]; Group 3 Bleo/BETi1 0.06 mg/mL, Day Elapsed 14): 62.5%
- Probability of Survival ([3]; Group 3 Bleo/BETi1 0.06 mg/mL, Day Elapsed 18): 56.25%
- Probability of Survival ([3]; Group 3 Bleo/BETi1 0.06 mg/mL, Day Elapsed 19): 50%
- Probability of Survival ([3]; Group 3 Bleo/BETi1 0.06 mg/mL, Day Elapsed 20): 50%
- Mean Diff., Weight of Whole lung, Group 2 Bleo/Veh vs. BETi1 group ([3]; Group 3 Bleo/BETi1 0.06 mg/mL, One Way ANOVA, Dunnett's): 0.01712
- % change in Body Weight Week 1 Compared to Baseline, mean [3, 4]: −22.10%
- % change in Body Weight week 2 Compared to Baseline, mean [3, 4]: −19.98%
- % change in Body Weight week 3 Compared to Baseline, Mean [3, 4]: −8.83%
- % change in Body Weight Week 1 Compared to Baseline [3, 5]: −37.04% and −20.00% and −39.32% and −11.86% and −37.37% and −3.83% and −26.78% and −31.75% and −37.30% and −38.92% and −35.61% and −25.13% and −14.61% and −18.53% and −13.95% and −12.29%
- % change in Body Weight week 2 Compared to Baseline [3, 5]: −39.35% and −15.35% and −47.44% and −1.27% and −1.28% and −37.16% and −39.04% and −8.22% and −19.83% and −3.26% and −7.63%
- % change in Body Weight week 3 Compared to Baseline [3, 5]: −37.04% and −9.77% and −0.85% and −2.13% and −5.02% and −14.22% and 0.93% and −2.54%
- Mean 2 (group mean), Weight of Whole lung ([3]; Group 4 Bleo/BETi1 0.6 mg/mL): 0.2681
- Weight of Whole lung, Mean ([3]; Group 4 Bleo/BETi1 0.6 mg/mL): 0.27 grams
- Weight of Whole lung, individual animals ([3]; Group 4 Bleo/BETi1 0.6 mg/mL): 0.13 grams and 0.31 grams and 0.29 grams and 0.32 grams and 0.37 grams and 0.27 grams and 0.20 grams (2×) and 0.33 grams and 0.34 grams (2×) and 0.18 grams and 0.21 grams
